Patent publication US20220220135A1 (BAR-ILAN UNIVERSITY, priority 2019, published 2022)

Key:
NTPDase1 = target: T1, NTPDase1 (Homo sapiens, UniProt P49961); experiment: Stability to hydrolysis by human NTPDase1; assay type: in vitro ADME; conditions: analogue 100 μM; activity with 100 μM ATP = 100%
T1 sequence (P49961 1-510): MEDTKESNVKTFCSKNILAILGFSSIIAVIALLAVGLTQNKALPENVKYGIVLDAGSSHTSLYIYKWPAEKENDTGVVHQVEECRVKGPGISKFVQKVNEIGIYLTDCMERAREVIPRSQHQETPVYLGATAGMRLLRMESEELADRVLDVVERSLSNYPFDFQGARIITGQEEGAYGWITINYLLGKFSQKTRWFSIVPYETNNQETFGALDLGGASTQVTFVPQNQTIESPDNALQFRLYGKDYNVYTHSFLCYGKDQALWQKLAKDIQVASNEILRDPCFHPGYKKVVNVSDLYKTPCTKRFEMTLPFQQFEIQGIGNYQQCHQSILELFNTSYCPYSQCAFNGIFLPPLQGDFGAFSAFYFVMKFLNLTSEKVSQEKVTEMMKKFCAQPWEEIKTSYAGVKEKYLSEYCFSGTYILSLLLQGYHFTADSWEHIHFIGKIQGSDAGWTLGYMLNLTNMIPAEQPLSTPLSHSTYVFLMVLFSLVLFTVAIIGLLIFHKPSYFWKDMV
Experimental: (§1) Uridine 5′-Pα,α-phosphorodithioate analogues, 9-12, were tested for their stability to degradation by NPP1 and NTPDases. These enzymes are involved in the metabolism of extracellular nucleotides. Analogues 9-12 were not hydrolyzed by hNPP1 (Table 2). […] Analogue 10 was hydrolyzed by hNTPDase1, -2 and -3 at 30-39% the rate of ATP and was slightly hydrolyzed by human NTPDase8 at 16% the rate of ATP.
(§2) Analogues 9-12 were incubated in the presence of the indicated ectonucleotidase at a concentration of 100 μM. The activity with 100 μM ATP was set as 100%, which was 329±108, 302±34, 263±51, 195±76 nmol of Pi·min−1·mg of protein−1 for NTPDase1, -2, -3 and -8, respectively, and 34±7 nmol for NPP1. Data presented are the mean±SEM of results from two experiments.

NTPDase2 = target: T2, NTPDase2 (Homo sapiens, UniProt Q9Y5L3); experiment: Stability to hydrolysis by human NTPDase2; assay type: in vitro ADME; conditions: analogue 100 μM; activity with 100 μM ATP = 100%
T2 sequence (Q9Y5L3 1-495): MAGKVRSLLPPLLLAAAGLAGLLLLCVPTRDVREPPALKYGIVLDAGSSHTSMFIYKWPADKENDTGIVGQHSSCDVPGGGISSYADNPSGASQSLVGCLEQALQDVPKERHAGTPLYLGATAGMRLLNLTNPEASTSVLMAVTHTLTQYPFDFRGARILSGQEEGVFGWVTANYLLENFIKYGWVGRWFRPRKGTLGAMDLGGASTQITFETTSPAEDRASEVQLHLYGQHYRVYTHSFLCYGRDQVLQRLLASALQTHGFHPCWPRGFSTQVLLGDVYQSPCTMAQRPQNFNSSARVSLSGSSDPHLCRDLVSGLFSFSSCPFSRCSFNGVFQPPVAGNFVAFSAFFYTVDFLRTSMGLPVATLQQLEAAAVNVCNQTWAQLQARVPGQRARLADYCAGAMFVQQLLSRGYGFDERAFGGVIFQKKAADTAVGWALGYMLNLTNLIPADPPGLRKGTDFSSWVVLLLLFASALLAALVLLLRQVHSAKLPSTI
Experimental: as §1, §2

P2Y6R = P2Y6R (Homo sapiens, UniProt Q15077); experiment: Calcium mobilization in 1321N1 astrocytoma cells expressing human P2Y6R; assay type: cell-based; set-up: expressed in transfected cells; host or cells: 1321N1 astrocytoma cells (stably transfected)
Experimental: (§3) Given the structural resemblance of 106-109 to the natural ligands of P2Y receptors, adenine and uracil nucleotides as natural substrates, were assessed for agonist potency on the human P2Y1, P2Y2, P2Y4, and P2Y6 receptor. To evaluate NPP1 selectivity of analogs 106-109, they were tested for their ability to activate of the uridine-nucleotide sensitive human recombinant P2Y1,2,4,6-receptors. The agonist potencies of this series of nucleotide analogues on the Gq protein-coupled human P2Y1R, P2Y2R, P2Y4R, and P2Y6R was determined by assessing its ability to induce calcium mobilization in stably transfected 1321N1 astrocytoma cells (Table 8). The nucleotide analogues were found in calcium mobilization assays to activate the P2Y2R with mid-micromolar potency.

human P2Y4R = target: T3, human P2Y4R (Homo sapiens, UniProt P51582); experiment: Calcium mobilization in 1321N1 astrocytoma cells expressing human P2Y4R; assay type: cell-based
T3 construct: expressed in transfected cells; host or cells: 1321N1 astrocytoma cells
Experimental: as §3

rat CD73 = target: T4, rat CD73 (Rattus norvegicus, UniProt P21588); experiment: Inhibition of rat CD73, 5 μM [3H]AMP as substrate; assay type: biochemical; conditions: 5 μM [3H]AMP as a substrate; n = 3
T4 sequence (P21588 29-551): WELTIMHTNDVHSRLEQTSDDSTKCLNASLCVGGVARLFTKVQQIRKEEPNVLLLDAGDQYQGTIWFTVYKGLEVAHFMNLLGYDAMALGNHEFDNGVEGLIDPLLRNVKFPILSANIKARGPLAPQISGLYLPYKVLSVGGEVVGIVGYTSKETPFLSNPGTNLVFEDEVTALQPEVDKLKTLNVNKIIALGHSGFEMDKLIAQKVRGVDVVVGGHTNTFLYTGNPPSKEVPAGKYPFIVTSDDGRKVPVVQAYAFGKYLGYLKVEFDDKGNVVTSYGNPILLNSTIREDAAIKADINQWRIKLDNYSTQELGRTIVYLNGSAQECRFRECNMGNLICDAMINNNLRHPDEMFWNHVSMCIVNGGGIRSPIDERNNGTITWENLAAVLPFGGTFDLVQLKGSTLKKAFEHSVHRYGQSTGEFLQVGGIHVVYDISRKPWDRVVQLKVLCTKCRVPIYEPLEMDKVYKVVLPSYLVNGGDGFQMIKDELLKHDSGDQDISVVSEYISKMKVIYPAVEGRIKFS

human P2Y1R = target: T5, human P2Y1R (Homo sapiens, UniProt P47900); experiment: Calcium mobilization in 1321N1 astrocytoma cells expressing human P2Y1R; assay type: cell-based
T5 construct: expressed in transfected cells; host or cells: 1321N1 astrocytoma cells
Experimental: as §3

human CD39 = target: T6, human CD39 (Homo sapiens, UniProt P49961); experiment: Inhibition of human CD39, 0.5 μM PSB-170621A as substrate; assay type: biochemical; conditions: 0.5 μM PSB-170621A as a substrate; n = 3
T6 sequence (P49961 1-510): T1 sequence (P49961 1-510)

P2Y6R, sequence (Q15077 whole entry): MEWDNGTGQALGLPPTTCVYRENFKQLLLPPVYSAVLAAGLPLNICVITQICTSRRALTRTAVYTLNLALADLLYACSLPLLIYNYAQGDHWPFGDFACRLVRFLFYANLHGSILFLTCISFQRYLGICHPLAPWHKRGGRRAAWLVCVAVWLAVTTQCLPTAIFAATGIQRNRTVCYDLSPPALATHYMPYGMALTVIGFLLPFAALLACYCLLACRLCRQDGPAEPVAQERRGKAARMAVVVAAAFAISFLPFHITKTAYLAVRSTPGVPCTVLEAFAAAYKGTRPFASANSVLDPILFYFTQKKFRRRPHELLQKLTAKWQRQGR
T3 sequence (P51582 whole entry): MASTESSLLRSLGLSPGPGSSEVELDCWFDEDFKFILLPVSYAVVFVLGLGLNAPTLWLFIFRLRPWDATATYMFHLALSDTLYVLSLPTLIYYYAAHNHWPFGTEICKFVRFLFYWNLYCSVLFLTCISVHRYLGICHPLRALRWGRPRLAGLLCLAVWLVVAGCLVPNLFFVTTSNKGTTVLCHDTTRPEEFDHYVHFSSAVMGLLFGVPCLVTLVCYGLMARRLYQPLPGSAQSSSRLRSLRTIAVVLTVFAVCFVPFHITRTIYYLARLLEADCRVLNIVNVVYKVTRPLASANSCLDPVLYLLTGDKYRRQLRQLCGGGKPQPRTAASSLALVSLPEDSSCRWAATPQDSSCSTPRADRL
T5 sequence (P47900 whole entry): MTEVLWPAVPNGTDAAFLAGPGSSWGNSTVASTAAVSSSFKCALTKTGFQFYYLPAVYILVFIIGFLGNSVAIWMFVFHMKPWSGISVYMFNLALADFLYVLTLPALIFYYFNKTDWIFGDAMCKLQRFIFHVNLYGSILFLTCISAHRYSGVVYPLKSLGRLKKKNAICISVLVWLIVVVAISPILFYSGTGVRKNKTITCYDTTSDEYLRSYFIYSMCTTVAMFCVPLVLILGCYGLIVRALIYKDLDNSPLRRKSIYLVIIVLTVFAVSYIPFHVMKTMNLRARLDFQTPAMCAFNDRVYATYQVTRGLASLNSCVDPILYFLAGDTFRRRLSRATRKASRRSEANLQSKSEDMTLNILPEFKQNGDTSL

Compound	Relative activity (%) ± SEM of ATP hydrolysis, NTPDase1 (NTPDase1) [%]	Relative activity (%) ± SEM of ATP hydrolysis, NTPDase2 (NTPDase2) [%]	% activation at 10 μM, P2Y6 (P2Y6R) [%]	% activation at 10 μM, P2Y4 (human P2Y4R) [%]	% inhibition ± SEM, rat CD73 (rat CD73)	% activation at 10 μM, P2Y1 (human P2Y1R) [%]	% inhibition ± SEM, human CD39 (human CD39) [%]
O=c1ccn([C@@H]2O[C@H](COP(=S)(S)OP(=O)(O)OP(=O)(O)O)[C@@H](O)[C@H]2O)c(=O)[nH]1 (stereo partly shown) [Analogue 10]	30.8 ± 3.2	32.0 ± 3.3					
Nc1ncnc2c1ncn2COCCOP(=S)(S)OP(=O)(O)O (stereo not shown) [compound 106]			−2 ± 1	0 ± 0	n.i.d	2 ± 2	14 ± 1
